In patent publication US9504729B2, “Antiangiogenic small molecules and methods of use” (The United States of America, as represented by the …, priority 2009, dated 2016):
Counter-ions that a name gives are not always drawn. Like-named read-outs stand apart in the source and are kept apart here.

Columns and labels:
[1] = tested on: endothelial cells; test: Primary screening: cell-based growth HTS and tube formation HTS (bioactivity class)
Procedure: All assays were performed in clear bottom black 96-well plates. The plates were always arranged to include a column for negative controls (column 1), a column for positive controls (column 12), and 10 columns for evaluation of 80 compounds. In order to increase stringency and avoid false positives in the HTS assays, all compounds were tested at a low final concentration of 1 μM.
In summary, 1,000 cells/well were seeded in the 96-well plates described above. Cells in columns 2-12 were seeded in 10% FBS and cells in column 1 (negative control) were seeded in 0% FBS. Small molecules (80 per plate) were added in columns 2-11 at a final concentration of 1 μM (both positive and negative controls were exposed to the same percentage of DMSO in wells containing test compounds). The fluorescence emitted by every well was measured spectrophotometrically (Infinite M200, TECAN®, Mannedorf, Switzerland) every 24 hours for 5-7 days.
In summary, 20,000 cells/well were seeded on top of 50 μl of pre-gelled GELTREX® gel matrix (Invitrogen, Carlsbad, Calif.). All cells were seeded in 10% FBS. […] Small molecules (80 per plate) were added to columns 2-11 at a final concentration of 1 μM (both positive and negative controls were exposed to the same percentage of DMSO in wells containing test compounds). Plates were incubated for 5-7 hours and automatically imaged with the help of an epifluorescence microscope (Axiovert® 200M, Zeiss) equipped with a motorized stage and AxioVision® (Zeiss) software.
For hit detection, a stringent threshold (sigma 3.5) was applied to avoid false positives.

[2] = in vitro; conditions: pig
[3] = tested on: SK-ML-1 tumors; test: SK-ML-1 tumor xenograft; conditions: 100 μl of 10 μM IP, three times a week for four weeks
[4] = biological target: KDR(VEGFR2) (Homo sapiens, UniProt P35968); test: SelectScreen kinase activity profiling, KDR(VEGFR2); format: biochemical; conditions: VEGFR2 receptor
KDR(VEGFR2), sequence (P35968 20-1356): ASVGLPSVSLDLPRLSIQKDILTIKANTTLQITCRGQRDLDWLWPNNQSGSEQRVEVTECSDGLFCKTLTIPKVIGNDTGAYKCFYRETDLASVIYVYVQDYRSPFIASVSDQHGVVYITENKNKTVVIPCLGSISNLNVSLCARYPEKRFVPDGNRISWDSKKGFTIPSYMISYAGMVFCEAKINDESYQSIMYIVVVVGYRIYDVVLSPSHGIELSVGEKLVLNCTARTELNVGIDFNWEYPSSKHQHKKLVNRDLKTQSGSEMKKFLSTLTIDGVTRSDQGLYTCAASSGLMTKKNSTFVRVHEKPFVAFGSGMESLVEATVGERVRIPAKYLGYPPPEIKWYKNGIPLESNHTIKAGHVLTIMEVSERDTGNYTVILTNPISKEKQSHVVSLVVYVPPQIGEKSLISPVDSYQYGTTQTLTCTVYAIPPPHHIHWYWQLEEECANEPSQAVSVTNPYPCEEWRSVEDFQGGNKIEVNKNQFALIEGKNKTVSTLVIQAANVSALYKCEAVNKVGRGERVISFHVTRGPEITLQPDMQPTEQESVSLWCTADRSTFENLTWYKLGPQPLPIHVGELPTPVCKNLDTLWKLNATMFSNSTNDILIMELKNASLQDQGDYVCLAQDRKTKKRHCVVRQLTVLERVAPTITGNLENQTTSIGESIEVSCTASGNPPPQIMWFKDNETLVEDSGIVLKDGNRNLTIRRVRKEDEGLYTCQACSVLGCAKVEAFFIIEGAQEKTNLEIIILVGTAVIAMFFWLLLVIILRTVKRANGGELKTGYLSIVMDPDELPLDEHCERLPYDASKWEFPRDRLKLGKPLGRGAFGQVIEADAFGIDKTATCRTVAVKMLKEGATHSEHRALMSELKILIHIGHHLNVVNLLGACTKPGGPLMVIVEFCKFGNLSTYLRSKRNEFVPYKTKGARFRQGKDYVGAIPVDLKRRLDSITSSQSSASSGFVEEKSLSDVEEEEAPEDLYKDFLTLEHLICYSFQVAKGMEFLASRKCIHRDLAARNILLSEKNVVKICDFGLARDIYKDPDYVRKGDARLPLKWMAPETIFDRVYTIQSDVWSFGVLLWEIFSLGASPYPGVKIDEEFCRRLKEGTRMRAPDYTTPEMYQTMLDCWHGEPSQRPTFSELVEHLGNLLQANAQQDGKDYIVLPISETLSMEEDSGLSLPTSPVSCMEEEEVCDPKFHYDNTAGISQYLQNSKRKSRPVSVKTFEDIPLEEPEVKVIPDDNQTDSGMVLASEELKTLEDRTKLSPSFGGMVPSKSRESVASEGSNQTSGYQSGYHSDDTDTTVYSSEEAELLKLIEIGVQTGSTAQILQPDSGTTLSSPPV
Text: To characterize the RTK inhibitory activity of the antiangiogenic SMs described herein, 36 compounds were chosen and screened using Invitrogen's SelectScreen® kinase activity profiling service (described on-line at tools.invitrogen.com/content.cfm?pageid=10413#selection). VEGFR1 and FGFR2 RTK inhibitory activities were studied. […] Overall, a small minority of the SMs tested had any substantial kinase inhibitory activity. This observation supports a mechanism of antiangiogenic action other than RTK inhibition for most of the SMs described herein.

[5] = tested on: PAE; test: Apoptosis in PAE; format: cell-based, porcine
[6] = tested on: PAE cells; test: Growth dose response (IC50) in PAE; format: cell-based, porcine; conditions: read-out: Growth IC50 (M) in PAE
Text: FIG. 6: Dose response curves were constructed for all the SMs of interest using PAE cells. Data were fitted to non-linear sigmoid curves using GraphPad Prism (GraphPad Software, Inc., La Jolla, Calif.).
Dose response curves were constructed for all the SM of interest using PAE cells. Data were fitted to non-linear sigmoid curves using GraphPad Prism (GraphPad software, Inc.).

[7] = tested on: PAE cells; test: Fluorescence-release cytotoxicity assay; conditions: endothelial cells
[8] = tested on: PAE cells
[9] = tested on: A549 tumors; conditions: positive control; cited from earlier work
[10] = tested on: SK-ML-1 tumors; conditions: positive control; cited from earlier work
[11] = HTS at 1 μM final concentration

COc1ccc(CC2C(=O)NC(C)C(=O)N(C)C3Cc4ccc(cc4)Oc4cc(ccc4O)CC(C(=O)NC(C)C(=O)NC(C)C(=O)N2C)N(C)C3=O)cc1 (stereo not drawn) [Compound 58, Deoxybouvardin or 24-hydroxy-10-(4-methoxybenzyl)-4,7,9,13,15,29-hexamethyl-22-oxa-3,6,9,12,15,29-hexaazatetracyclo-[14.12.2.2~18,21~.1~23,27~]tritriaconta-18,20,23(31),24,26,32-hexaene-2,5,8,11,14,30-hexone]
type of inhibition (endothelial cell growth and/or tube formation) [1]: tube formation
cytotoxicity [2]: 11.2%
inhibition of tumor growth, SK-ML-1 xenograft [3]: potencies similar to AVASTIN®

CCC(=O)OCN1C(=O)C=CC1=O [Compound 39, (2,5-dioxopyrrol-1-yl)methyl propanoate]
type of inhibition (endothelial cell growth and/or tube formation) ([1]; 1 μM): tube formation
cytotoxicity [2]: 8.54%
RTK inhibitory activity (in words) [4]: showed RTK inhibitory activity

azidobenzene; 1H-indene; prop-1-en-2- ylbenzene [Compound 49]
Bioactivity [1]: 2
Apoptosis PAE (RFU) [5]: 1.235 RFU

CC1(C)N=C(N)N=C(N)N1CCCCc1ccccc1.Cl [Compound 11, 6,6-dimethyl-1-(4-phenylbutyl)-1,3,5-triazine-2,4-diamine hydrochloride]
IC50 ([6]; Sus scrofa, PAE cells): 2.37e-11 M
cytotoxicity (in words) [7]: cytotoxic
cytotoxicity [2]: 18.7%

bromocopper; (dipyridin-2- ylmethylideneamino)- [methylsulfanyl(sulfoniumylidene) methyl]azanide [Compound 70]
IC50 ([6]; PAE cells): 6.11e-12 M
Bioactivity [1, 11]: 3
cytotoxicity (in words) [7]: cytotoxic
Cytotoxicity (%) [8]: 38.53%
Apoptosis PAE (RFU) ([5]; PAE cells): 1.021 RFU

[benzylsulfanyl(sulfoniumylidene) methyl]-(1-pyridin-2- ylethylideneamino)azanide; chlorocopper [Compound 65]
IC50 ([6]; PAE cells): 1.09e-11 M
Bioactivity [1, 11]: 3
Apoptosis PAE (RFU) ([5]; PAE cells): 2.227 RFU

AVASTIN®: monoclonal antibody directed against an isoform of VEGF, marketed under the trade name Avastin®; known antiangiogenic drug, positive control
inhibition of growth of A549 (previously shown) [9]: significantly inhibit
inhibition of growth of SK-ML-1 (previously shown) [10]: significantly inhibit

COc1ccc(CC2C(=O)NC(C)C(=O)N(C)C3C(=O)N(C)C(Cc4ccc(O)c(c4)Oc4ccc(cc4)C3O)C(=O)NC(C)C(=O)NC(C)C(=O)N2C)cc1 (stereo not drawn) [Compound 59, Bouvardin or 17,24-dihydroxy-10-(4-methoxybenzyl)-4,7,9,13,15,29-hexamethyl-22-oxa-3,6,9,12,15,29-hexaazatetracyclo-[14.12.2.2-18,21~.1~23,27~]tritriaconta-18,20,23(31),24,26,32-hexaene-2,5,8,11,14,30-hexone]
Bioactivity [1]: 2
Cytotoxicity (%) [8]: 9.794%
Apoptosis PAE (RFU) [5]: 6.215 RFU

3-[(2,4- dimethylphenyl)carbamoyl]naphthalen-2- olate; N-(2,4-dimethylphenyl)-3- hydroxynaphthalene-2-carboxamide; nickel(2+) [Compound 37]
IC50 [6]: > 1e-06 M
Bioactivity [1]: 1
Apoptosis PAE (RFU) [5]: 2.037 RFU

O=[N+]([O-])c1ccc(S(=O)(=O)Cc2ccccc2)c([N+](=O)[O-])c1 [Compound 64, 1-benzylsulfonyl-2,4-dinitrobenzene]
IC50 ([6]; Sus scrofa, PAE cells): 2.79e-10 M
type of inhibition (endothelial cell growth and/or tube formation) ([1]; 1 μM): inhibited both endothelial cell growth and tube formation
type of inhibition (endothelial cell growth and/or tube formation) ([1]; 1 μM, listed as NSC 122657): tube formation+growth
cytotoxicity (in words) [8]: without cytotoxicity
cytotoxicity [2]: 7.09%

O=[As](O)(O)c1ccc(Cc2ccc([As](=O)(O)O)cc2)cc1 [Compound 69, [4-[(4-arsonophenyl)methyl]phenyl]arsonic acid]
IC50 ([6]; Sus scrofa, PAE): 3.84e-10 M
type of inhibition (endothelial cell growth and/or tube formation) [1]: inhibited both endothelial cell growth and tube formation
cytotoxicity (in words) [8]: without cytotoxicity
cytotoxicity [2]: 8.26%
RTK inhibitory activity (in words) [4]: showed RTK inhibitory activity
inhibition of tumor growth, SK-ML-1 xenograft [3]: potencies similar to AVASTIN®

COc1cc2cc(c1Cl)N(C)C(=O)CC(OC(=O)C(C)C)C1(C)OC1C(C)C1CC(O)(NC(=O)O1)C(OC)/C=C/C=C(\C)C2 (stereo not drawn) [Compound 56, Maytansinol isobutyrate or 4,24-Dioxa-9,22-diazatetracyclo[19.3.1.110,14.03,5] hexacosane, maytansine deriv.]
type of inhibition (endothelial cell growth and/or tube formation) [1]: tube formation
cytotoxicity [2]: 7.52%

O=C(c1no[n+]([O-])c1C(=O)c1csc2ccccc12)c1csc2ccccc12 [Compound 68, [4-(1-benzothiophene-3-carbonyl)-2-oxido-1,2,5-oxadiazol-2-ium-3-yl]-(1-benzothiophen-3-yl)methanone]
IC50 ([6]; Sus scrofa, PAE cells): 1.4e-10 M
cytotoxicity (in words) [7]: cytotoxic
cytotoxicity [2]: 19.1%

COc1ccc(-c2csc3c2-n2cccc2C3=O)cc1 [Compound 63, 3-(4-methoxyphenyl)thieno[2,3-b]pyrrolizin-8-one]
IC50 ([6]; Sus scrofa, PAE cells): 1.55e-11 M
type of inhibition (endothelial cell growth and/or tube formation) ([1]; 1 μM): inhibited both endothelial cell growth and tube formation
cytotoxicity (in words) [7]: without cytotoxicity
cytotoxicity [2]: 7.48%

Cl.O=C1C(=Cc2ccccc2)C(NC2CCCCC2)c2ccccc21 (stereo not drawn) [Compound 67, 2-benzylidene-3-(cyclohexylamino)-3H-inden-1-one chloride]
IC50 ([6]; Sus scrofa, PAE cells): 9.16e-11 M
type of inhibition (endothelial cell growth and/or tube formation) ([1]; 1 μM): inhibited both endothelial cell growth and tube formation
type of inhibition (endothelial cell growth and/or tube formation) ([1]; 1 μM, listed as NSC 150117): tube formation+growth
cytotoxicity (in words) [7]: without cytotoxicity
cytotoxicity [2]: 7.78%
inhibition of tumor growth, SK-ML-1 xenograft [3]: potencies similar to AVASTIN®

Nc1nc(N)c(-c2cccc(C(F)(F)F)c2)c(Cc2cccc(C(F)(F)F)c2)n1 [Compound 28, 5-[3-(trifluoromethyl)phenyl]-6-[[3-(trifluoromethyl)phenyl]methyl] pyrimidine-2,4-diamine]
IC50 ([6]; Sus scrofa, PAE cells): 7.41e-11 M
cytotoxicity [2]: 8.65%

O=C1c2ccccc2-c2cc([N+](=O)[O-])c([N+](=O)[O-])cc21 [Compound 6, 2,3-dinitrofluoren-9-one]
IC50 ([6]; Sus scrofa, PAE): 5.77e-10 M
cytotoxicity [2]: 6.97%

COc1cc2ccccc2c2cc([N+](=O)[O-])oc12 [Compound 1, 4-methoxy-2-nitrobenzo[e][1]benzofuran]
IC50 ([6]; Sus scrofa, PAE cells): 3.72e-10 M
cytotoxicity [2]: 7.56%

CCC1(OC(=O)CN)C(=O)OCc2c1cc1n(c2=O)Cc2cc3ccccc3nc2-1 (stereo not drawn) [Compound 34, 4-Ethyl-3,14-dioxo-3,4,12,14-tetrahydro-1H-pyrano[3′,4′:6,7]indolizino[1,2-b]quinolin-4-yl aminoacetate hydrochloride]
IC50 ([6]; Sus scrofa, PAE): 9.92e-12 M
cytotoxicity [2]: 10.2%

zinc; 8-hydroxy-3,4,4a,5,6,7,8,8a- octahydro-2H-quinolin-1-ide-5-sulfonic acid; 5-sulfo-1,2-dihydroquinolin-8-olate [Compound 61]
Bioactivity [1]: 2
Cytotoxicity (%) [8]: 7.901%
Apoptosis PAE (RFU) [5]: 1.841 RFU

2,5-dibromo-3,6-dimethylbenzene-1,4- diol; 2,5-dibromo-3,6- dimethylcyclohexa-2,5-diene-1,4-dione [Compound 72]
IC50 [6]: 1.39e-10 M
Bioactivity [1]: 3
Cytotoxicity (%) [8]: 13.88%
Apoptosis PAE (RFU) [5]: 1.368 RFU

COc1cccc2c(O)c3c(c(N)c12)C(=O)C1=C(C[C@@](O)(C(C)=O)C[C@@H]1OC1CC(N)C(O)C(C)O1)C3=O (stereo partly drawn) [Compound 35, (1S,3S)-3-acetyl-11-amino-1-(4-amino-5-hydroxy-6-methyloxan-2-yl)oxy-3,6-dihydroxy-10-methoxy-2,4-dihydro-1H-tetracene-5,12-dione hydrochloride]
IC50 ([6]; Sus scrofa, PAE cells): 2.41e-11 M
cytotoxicity [2]: 7.98%

Oc1ccc(Cl)cc1Cc1cc(Cl)cc(Cc2cc(Cl)ccc2O)c1O [Compound 25, 4-chloro-2,6-bis[(5-chloro-2-hydroxyphenyl)methyl]phenol]
IC50 ([6]; Sus scrofa, PAE cells): 2.27e-10 M
cytotoxicity [2]: 9.57%
